In publication PMC5120204, “Identification of an orally active small-molecule PTHR1 agonist for the treatment of hypoparathyroidism” (Nature Communications, 2016):

How the values were obtained:
Type in all cases: cell-based
[1] = biological target: T1, hPTHR1–hPTHR2 chimeric receptors (C1, C2, C3) and mutant hPTHR1s (M24, M25, M26, M414V, P415L, L416V) (Homo sapiens, UniProt Q03431, A426C/A97V/D353E/D94P/DEL429-429/E431S/E93Y/E96D/G100Y/G350R/I363Y/K359I/K95Y/L436G/L446F/M425V/M445L/N348D/N358D/Q438E/Q440R/S101A/S341V/S356A/S370A/S433T/T349A/T427L/T430H/T435L/T99D/V334A/V338A/V340A/V342A/V365A/V372G/V432F/V439I/Y443C); conditions: cells expressing C3
T1 construct: expressed in transfected cells; host or cells: COS-7 (transient)
Description: (§1) COS-7 cells (ATCC) were seeded into a 96-well flat-bottomed plate (1.4 × 10^4 cells per 100 μl per well) and incubated overnight. The next day, the COS-7 cells were transfected by adding 10 μl of a mixture of hPTHR1, hPTHR2 or mutant hPTHR1 plasmid, rat PTHR1 or rat PTHR2 plasmid, or empty vector (0.1 μg per well), FuGENE HD Transfection Reagent (0.4 μl per well, Promega), and Opti-MEM I Reduced Serum Medium (10 μl per well, Life Technologies) to each well. […] The plate was placed in a 37 °C constant-temperature water bath for 20 min to allow the reaction to proceed. After incubation, the liquid in the wells was discarded, the wells were washed with the assay medium (100 μl per well), and the plate was frozen on dry ice. Next, 40 μl of 50 mmol l^−1 HCl was added to each well, and the plate was stored in a freezer set at ≤−20 °C. The cAMP concentrations were measured by using a cAMP EIA kit (GE Healthcare). EC50 values were determined from three independent experiments in duplicate by a non-linear regression Emax model (JMP ver.9.0.2, SAS Institute). The geometric mean of the EC50 values obtained in three experiments in duplicate was calculated using Microsoft Office Excel 2007. […]

[2] = biological target: T2, hPTHR1–hPTHR2 chimeric receptors (C1, C2, C3) and mutant hPTHR1s (M24, M25, M26, M414V, P415L, L416V) (Homo sapiens, UniProt Q03431, P415L); conditions: single replacement P415L
T2 construct: expressed in transfected cells; host or cells: COS-7 (transient)
T2 sequence (Q03431 27-593 E93Y/D94P/K95Y/E96D/A97V/T99D/G100Y/S101A/P415L): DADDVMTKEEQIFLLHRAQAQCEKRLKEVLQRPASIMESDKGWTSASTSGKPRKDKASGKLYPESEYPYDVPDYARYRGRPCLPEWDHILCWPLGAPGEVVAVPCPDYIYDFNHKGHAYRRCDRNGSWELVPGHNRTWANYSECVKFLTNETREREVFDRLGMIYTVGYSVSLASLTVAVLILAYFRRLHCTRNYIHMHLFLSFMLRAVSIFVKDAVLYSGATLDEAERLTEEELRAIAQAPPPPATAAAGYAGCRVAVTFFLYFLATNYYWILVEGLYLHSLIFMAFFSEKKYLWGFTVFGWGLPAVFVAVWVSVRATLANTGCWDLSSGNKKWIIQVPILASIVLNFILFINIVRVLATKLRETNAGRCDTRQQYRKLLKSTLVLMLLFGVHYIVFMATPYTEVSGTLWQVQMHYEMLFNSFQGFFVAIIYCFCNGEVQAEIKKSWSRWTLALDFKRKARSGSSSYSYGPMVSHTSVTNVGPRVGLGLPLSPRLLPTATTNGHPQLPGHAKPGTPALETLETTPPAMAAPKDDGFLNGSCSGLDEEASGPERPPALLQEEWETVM
Description: as §1

hPTHR1-delNT = biological target: T3, hPTHR1-delNT (Homo sapiens, UniProt Q03431); test: cAMP production assay in COS-7 cells expressing hPTHR1-delNT; conditions: COS-7 cells transfected with hPTHR1-delNT
T3 construct: HA + tetraglycine linker (YPYDVPDYA-GGGG); expressed in transfected cells; host or cells: COS-7 (transient)
T3 sequence (Q03431 with tags, fused parts or gaps): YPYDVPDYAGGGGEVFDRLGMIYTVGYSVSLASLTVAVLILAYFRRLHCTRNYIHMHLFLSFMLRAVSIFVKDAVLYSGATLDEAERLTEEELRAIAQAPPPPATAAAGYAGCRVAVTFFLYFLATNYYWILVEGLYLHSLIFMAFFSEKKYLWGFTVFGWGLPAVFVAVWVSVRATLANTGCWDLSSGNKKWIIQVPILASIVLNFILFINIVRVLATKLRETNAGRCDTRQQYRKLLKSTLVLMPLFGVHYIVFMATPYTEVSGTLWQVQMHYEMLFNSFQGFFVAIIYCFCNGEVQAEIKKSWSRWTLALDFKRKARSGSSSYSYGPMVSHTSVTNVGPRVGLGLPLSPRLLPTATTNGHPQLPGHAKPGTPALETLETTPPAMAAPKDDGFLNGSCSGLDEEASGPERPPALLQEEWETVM

endogenous rat PTHR1 = biological target: T4, endogenous rat PTHR1 (Rattus norvegicus, UniProt P25961); test: cAMP production in UMR-106 cells
T4 construct: UMR-106 cells, which natively express rat PTHR1; endogenous in cells; host or cells: UMR-106 (ATCC)
T4 sequence (P25961 27-591): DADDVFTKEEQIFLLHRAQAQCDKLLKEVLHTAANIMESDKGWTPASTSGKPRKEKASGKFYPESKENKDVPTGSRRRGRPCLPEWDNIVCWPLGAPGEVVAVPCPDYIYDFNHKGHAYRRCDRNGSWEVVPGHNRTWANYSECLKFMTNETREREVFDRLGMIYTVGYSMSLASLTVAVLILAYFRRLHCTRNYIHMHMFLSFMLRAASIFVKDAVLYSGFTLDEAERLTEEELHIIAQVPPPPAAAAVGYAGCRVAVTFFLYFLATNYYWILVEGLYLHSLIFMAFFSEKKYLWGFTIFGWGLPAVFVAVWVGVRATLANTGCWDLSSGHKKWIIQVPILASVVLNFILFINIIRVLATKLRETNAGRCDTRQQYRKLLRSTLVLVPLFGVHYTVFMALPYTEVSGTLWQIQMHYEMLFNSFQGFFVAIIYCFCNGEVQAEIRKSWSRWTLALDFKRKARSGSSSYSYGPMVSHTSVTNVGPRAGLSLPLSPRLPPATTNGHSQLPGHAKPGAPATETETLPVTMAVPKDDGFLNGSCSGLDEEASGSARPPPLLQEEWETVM

T1 sequence (Q03431 other isoform, or with tags, fused parts or gaps with the stated changes): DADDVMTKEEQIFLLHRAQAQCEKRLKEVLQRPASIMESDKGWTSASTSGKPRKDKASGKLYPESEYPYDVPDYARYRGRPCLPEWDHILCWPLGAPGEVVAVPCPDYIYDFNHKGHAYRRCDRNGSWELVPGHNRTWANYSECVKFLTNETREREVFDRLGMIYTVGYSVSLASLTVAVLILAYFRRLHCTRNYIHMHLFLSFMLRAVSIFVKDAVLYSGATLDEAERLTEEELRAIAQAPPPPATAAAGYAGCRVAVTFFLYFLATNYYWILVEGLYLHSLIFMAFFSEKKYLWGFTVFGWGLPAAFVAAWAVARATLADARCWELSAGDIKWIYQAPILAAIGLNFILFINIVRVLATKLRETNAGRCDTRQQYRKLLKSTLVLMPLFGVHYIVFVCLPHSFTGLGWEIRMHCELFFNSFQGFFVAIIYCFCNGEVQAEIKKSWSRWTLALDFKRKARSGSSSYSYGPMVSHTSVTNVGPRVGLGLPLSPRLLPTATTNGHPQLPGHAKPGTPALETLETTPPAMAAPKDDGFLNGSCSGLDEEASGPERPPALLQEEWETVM

In the case of Cc1cc(N2C(=O)NC(=O)C2(C)C)cc(C)c1CCS(=O)(=O)N1CCC2(CC1)N=C(c1ccc(OC(F)(F)F)cc1)NC2=O [PCO371, 1-{3,5-dimethyl-4-[2-({4-oxo-2-[4-(trifluoromethoxy)phenyl]-1,3,8-triazaspiro[4.5]dec-1-en-8-yl}sulfonyl)ethyl]phenyl}-5,5-dimethylimidazolidine-2,4-dione], the cAMP response [1] is reported as “responded well”, the cAMP production [2] is reported as “dramatic reduction” and the EC50 (hPTHR1-delNT) is reported as 2.5 µM. The cAMP production (endogenous rat PTHR1; 1 μmol l^−1, 20 min) was “did not induce cAMP production” and the cAMP production (endogenous rat PTHR1; 20 min) was “induced cAMP production”.
